This note sets out measurements from patent US12351556B2, “Pyridin-2(1H)one derivatives, their preparation and their use for the treatment of pain” (INSTITUT NATIONAL DE LA SANTE ET DE LA RECHERCHE MEDICALE …, priority 2019, dated 2025).

“Also recorded” adds a separate entry of the source.

In the first test the target is p38α MAPK (Homo sapiens (Human), UniProt Q16539). Nature of the test: p38 alpha IC50. Type of test: biochemical. To be noted: p38 alpha; read-out: Mean IC50. The method, then: Studies were undertaken to identify the possible biological target(s) of compound 69. The activation in neurons of PK such as PKCγ, ERK or p38 MAPK can contribute to pain hypersensitivity. Therefore, it was decided to screen compound 69 toward a panel of 50 PKs that provide a representative sampling of the human kinome (FIG. 3, Table 3) (Biochem. J. 2007, 408, 297-315). In this panel, p38α MAPK was identified as the privileged target, with 19% of kinase residual activity at 10 μM compound concentration.
Chain of p38α MAPK (Q16539 whole entry, canonical isoform): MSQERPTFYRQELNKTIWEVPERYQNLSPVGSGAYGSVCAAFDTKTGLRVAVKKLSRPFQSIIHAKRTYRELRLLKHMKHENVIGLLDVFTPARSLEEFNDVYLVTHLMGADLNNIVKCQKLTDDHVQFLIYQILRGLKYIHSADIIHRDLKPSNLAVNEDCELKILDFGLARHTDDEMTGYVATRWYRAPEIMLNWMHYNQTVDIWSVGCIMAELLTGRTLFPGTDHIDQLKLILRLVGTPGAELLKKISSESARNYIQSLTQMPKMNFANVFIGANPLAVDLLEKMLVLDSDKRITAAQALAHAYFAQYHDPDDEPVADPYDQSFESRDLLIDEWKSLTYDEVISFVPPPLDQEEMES
The selectivity of compound 69 was evaluated at 1 μM toward another panel containing all four p38 MAPK isoforms, ERK1, ERK2 as well as other protein kinases close to p38α MAPK in the kinome phylogenetic tree (FIG. 4, Table 4). […] Its IC50 toward p38α MAPK was determined, showing a value in the micromolar range (IC50=3.0±0.1 μM).
With `O=c1[nH]cc(Nc2cccc(F)c2)cc1-c1cccc2[nH]ccc12` [Compound 119, 5-((3-Fluorophenyl)amino)-3-(1H-indol-4-yl)pyridin-2(1H)-one], the IC50 (as a rule, the concentration that inhibits the measured activity by half) came to 1420 nM.
On the same count and under the same terms, the figure for `O=c1[nH]cc(Nc2ccccc2Br)cc1-c1cccc2[nH]ccc12` [Compound 141, 5-((2-Bromophenyl)amino)-3-(1H-indol-4-yl)pyridin-2(1H)-one] is 2720 nM.
As to `Cc1ccccc1Nc1c[nH]c(=O)c(-c2cccc3[nH]ccc23)c1` [Compound 130, 3-(1H-Indol-4-yl)-5-(o-tolylamino)pyridin-2(1H)-one], the IC50 was 1060 nM.
As to `O=c1[nH]cc(Nc2cccc(Br)c2)cc1-c1cccc2[nH]ccc12` [Compound 142, 5-((3-Bromophenyl)amino)-3-(1H-indol-4-yl)pyridin-2(1H)-one], the IC50 stood at 660 nM.
As for `O=c1[nH]cc(Nc2ccccc2F)cc1-c1cccc2[nH]ccc12` [Compound 118, 5-((2-Fluorophenyl)amino)-3-(1H-indol-4-yl)pyridin-2(1H)-one], the IC50 amounted to 230 nM.
The same measure, in the same setting: the figure for `O=c1[nH]cc(Nc2ccc(Br)cc2)cc1-c1cccc2[nH]ccc12` [Compound 143, 5-((4-Bromophenyl)amino)-3-(1H-indol-4-yl)pyridin-2(1H)-one] is 2350 nM.
The same measure, in the same setting: the figure for `COc1ccc(Nc2c[nH]c(=O)c(-c3cccc4[nH]ccc34)c2)cc1` [Compound 123, 3-(1H-Indol-4-yl)-5-((4-methoxyphenyl)amino)pyridin-2(1H)-one] is 3670 nM; for `O=c1[nH]cc(Nc2ccc(F)cc2)cc1-c1cccc2[nH]ccc12` [Compound 120, 5-((4-Fluorophenyl)amino)-3-(1H-indol-4-yl)pyridin-2(1H)-one] it is 430 nM; for `COc1cccc(Nc2c[nH]c(=O)c(-c3cccc4[nH]ccc34)c2)c1` [Compound 122, 3-(1H-Indol-4-yl)-5-((3-methoxyphenyl)amino)pyridin-2(1H)-one] it is 5530 nM.
Still for that read-out and setting: the figure for `O=c1[nH]cc(Nc2cccc(O)c2)cc1-c1cccc2[nH]ccc12` [Compound 134, 5-((3-hydroxyphenyl)amino)-3-(1H-indol-4-yl)pyridin-2(1H)-one] is 1040 nM; for `COc1ccccc1Nc1c[nH]c(=O)c(-c2cccc3[nH]ccc23)c1` [Compound 121, 3-(1H-Indol-4-yl)-5-((2-methoxyphenyl)amino)pyridin-2(1H)-one] it is 5250 nM.

The test system of another test is inflammatory MA (face CFA model). Nature of the test: Face Complete Freund's Adjuvant (CFA) model of inflammatory mechanical allodynia. It is filed as in vivo. To be noted: rat, intracisternal 5 μL at 100 μM, 30 min before CFA. On the procedure: FIG. 1 illustrates the results obtained by the intracisternal application of compounds 19-24, 66-72 and 74-82. These compounds prevent face MA in a rat model of inflammatory pain (Complete Freund's Adjuvant (CFA), n=4-6 rats for each compound). For this assay, compounds (5 μL at 100 μM) or control vehicle were intra-cisternally administred 30 min before CFA injection.
Face Complete Freund's Adjuvant (CFA) Model.
CFA (Becton Dickinson) was dissolved in saline solution containing Tween 80 and paraffin oil and conserved at 4° C. For the behavioral tests, animals were briefly (<2 min) anesthetized using a mask with 2% isoflurane and received a subcutaneous injection of 25 μL of CFA (2.5 mg/kg) solution into the right vibrissa pad using a 27 Ga needle coupled to a 25 μL Hamilton syringe, as described previously. After injection, animals were awakened from anesthesia and placed in the behavioral experimental room, followed by a 120 min mechanical testing period.
Intracisternal Injection:
For investigating the effects of synthetized compounds upon mechanical allodynia, animals were briefly (<2 min) anesthetized using a mask with 2% isoflurane and received an intracisternal injection of 5 μL of compound (100 μM) or vehicle alone (saline+1% DMSO) using a 10 μL Hamilton syringe. After recovery (<2 min), rats were placed in an observation field (0.6×0.6 m square) under red light for a period test. 6-g von Frey filament was gently applied every 15 or 30 min onto the orofacial region by a first experimenter. The behavioral responses were observed and quantified by a second experimenter (see below).
Behavioral Responses to Normally Innocuous (6-g Von Frey Filament) Mechanical Stimulation.
The behavioral responses procedure was previously developed by Vos et al. 1994. A rat's response to mechanical stimulation consisted of one or more of the following elements: (1) detection, rat turn head toward stimulus; (2) withdrawal reaction, rat pull paw away or turn head away or pull it briskly backward when stimulation is applied (a withdrawal reaction is assumed to include a detection element preceding the head withdrawal and therefore consists of two responses elements); (3) escape/attack, rats avoid further contact with the stimulus, either passively by moving their bodies away from the stimulus, or actively by attacking the tip of the […]; (4) asymmetric grooming, rats display an uninterrupted series of at least three wash strokes directed to the stimulated area.
The in vivo efficacy of some compounds was evaluated on a rat model of inflammatory MA (face CFA model; Alba-Delgado et al J. Neurosci. 2018, 38, 10489-10504) (FIG. 1). After receiving a subcutaneous injection of 25 μL of CFA (2.5 mg/kg) into the right vibrissa pad, rats develop a MA that lasts days. […] In this model of inflammatory MA, MA was suppressed in compound 69 treated rats, in comparison to animals treated with vehicle (FIG. 2A).
In the case of `O=c1[nH]cc(Nc2ccccc2)cc1-c1cccc2cccnc12` [Compound 23, 5-(Phenylamino)-3-(quinolin-8-yl)pyridin-2(1H)-one], the “prevention of inflammatory MA (allodynic score, 6-g von Frey filament)” value (shortened to “prevention of inflammatory MA”) is “prevented the development of inflammatory MA”.
With `O=c1[nH]cc(Nc2ccccc2)cc1-c1ccc(F)cc1F` [Compound 82, 3-(2,4-Difluorophenyl)-5-(phenylamino)pyridin-2(1H)-one], the “prevention of inflammatory MA” value is listed as “prevented the development of inflammatory MA”.
Same read-out and setting: the entry for `O=c1[nH]cc(Nc2ccccc2)cc1-c1cncnc1` [Compound 24, 5-(Phenylamino)-3-(pyrimidin-5-yl)pyridin-2(1H)-one] is “prevented the development of inflammatory MA”.
Still for that read-out and setting: the entry for `CC(=O)c1cccc(-c2cc(Nc3ccccc3)c[nH]c2=O)c1` [Compound 75, 3-(3-Acetylphenyl)-5-(phenylamino)pyridin-2(1H)-one] is “prevented the development of inflammatory MA”; for `O=c1[nH]cc(Nc2ccccc2)cc1-c1ccncc1` [Compound 21, 5-(Phenylamino)-[3,4′-bipyridin]-2(1H)-one] it is “comparable gains of activity”; for `CCOC(=O)c1ccccc1-c1cc(Nc2ccccc2)c[nH]c1=O` [Compound 70, Ethyl 2-(2-oxo-5-(phenylamino)-1,2-dihydropyridin-3-yl)benzoate] it is “high activities”.
The same measure, in the same setting: the entry for `O=c1[nH]cc(Nc2ccccc2)cc1-c1ccccc1[N+](=O)[O-]` [Compound 72, 3-(2-Nitrophenyl)-5-(phenylamino)pyridin-2(1H)-one] is “prevented the development of inflammatory MA”.
In the case of `Cc1ccc(-c2cc(Nc3ccccc3)c[nH]c2=O)cc1` [Compound 77, 5-(Phenylamino)-3-(p-tolyl)pyridin-2(1H)-one], the “prevention of inflammatory MA” value is reported as “prevented the development of inflammatory MA; also recorded: comparable gains of activity”.
For the compound `NC(=O)c1ccc(-c2cc(Nc3ccccc3)c[nH]c2=O)cc1` [Compound 81, 4-(2-Oxo-5-(phenylamino)-1,2-dihydropyridin-3-yl)benzamide], the “prevention of inflammatory MA” value is listed as “prevented the development of inflammatory MA”.
Take `O=c1[nH]cc(Nc2ccccc2)cc1-c1ccc(OC(F)(F)F)cc1` [Compound 79, 5-(Phenylamino)-3-(4-(trifluoromethoxy)phenyl)pyridin-2(1H)-one]: the “prevention of inflammatory MA” value is given as “prevented the development of inflammatory MA”.
